Patent US20040010018A1, “Treatment of neuropathic pain” (priority 2002, published 2004)
“Also recorded” adds a separate entry of the source. Structures can show the parent of a compound that is named as a salt.

Columns and labels:
[1] = given systemically (i.p.); cited from earlier work
[2] = observed side effects / behaviors after injection in neuropathic rats; type: in vivo, rat
[3] = tested on: neuropathic pain (mechanical allodynia); test: mechanical allodynia (von Frey) in the rat spinal nerve ligation model of neuropathic pain; type: in vivo; conditions: for effect of antagonist pretreatment on A-85380 induced anti-allodynia: A-85380 0.75 μmol/kg i.p.
Description: Under halothane anesthesia, the L5 and L6 spinal nerves were tightly ligated in the manner described previously by Chung et al. (Kim S. H., Chung J. M., An experimental model for peripheral neuropathy produced by segmental spinal nerve ligation in the rat. Pain 1992; 50:355-363.). Briefly, an incision was made on the dorsal portion of the hip, and the muscle was blunt dissected to reveal the spinal processes. The L6 transverse process was removed, and the left L5 and L6 spinal nerves were tightly ligated with 5.0 braided silk suture. The wound was cleaned, the membrane sewn with 4.0 dissolvable Vicryl suture and the skin closed with wound clips.
Implantation of the DRG catheters was performed immediately following nerve ligation, with animals maintained under halothane for the entire procedure (35-40 minutes). Catheters were constructed of PE 20 with small pieces of tygon tubing cemented along the catheter to allow for suture anchoring points during surgery. The left L5 DRG was exposed by removing the posterior articular process of the L5 vertebra. Gelfoam was inserted into the cavity to prevent the catheter from damaging the ganglion. The catheter was sutured to the muscle and fascia, then run subcutaneously to exteriorize between the shoulder blades. Saline was infused into the catheter, and it was heat sealed.
The implantation of i.c.v. cannulae were conducted under sodium pentobarbital (50 mg/kg, i.p. Nembutal) anesthesia with nerve ligation occurring just after the implantation; animals were maintained under anesthesia for the entire procedure (40-45 minutes). Animals were implanted with a 22 gauge guide cannulae (Plastics One, Roanoke Va.) cut to 6 mm. The stereotaxic coordinates from bregma were 1.0 mm posterior, 1.6 mm lateral, and 4.5 ventral (Paxinos G. and Watson C., The rat brain in stereotaxic coordinates. New York: Academic Press, 1997). Three skull screws were attached for stability, and the implant was covered with cranioplastic acrylic.
For i.c.v. (intracerebroventricular) infusion, chlorisondamine (10 μg) was dissolved in 5 μl phosphate buffered saline and infused by syringe pump at a rate of 5 μl/min. The infusion was performed 24 hours prior to testing in order to reduce stress to the animals immediately prior to behavioral testing.
For all other routes of administration including intraperotineal (i.p.), intradermal (i.d.) or onto the DRG, chlorisondamine was dissolved in saline. The final volumes for i.p. injections were 1 ml/kg, for i.d. were 50 μl and for DRG injections were 10 μl. All injections were made by hand held syringe.
For the assessment of neuropathic pain, mechanical allodynia in the affected paw of animals who had undergone spinal nerve ligation was evaluated using von Frey filaments. As described previously (Chaplan et al, Quantitative assessment of tactile allodynia in the rat paw. J Neurosci Meth, 1994; 53:55-62), two weeks following surgery, rats were acclimated to the testing box which was constructed of plexiglass with a wire mesh floor to allow access to the planter surface of the hind paws. Using the Dixons Up-Down method, a baseline level of allodynia was taken with allodynia defined as a withdrawal threshold <4 g. Test compounds were then administered and subsequent withdrawal thresholds determined.
For spinal nerve ligation experiments, the timing of antagonist administration depended upon the route of administration. With i.c.v. administration, chlorisondamine or its vehicle was given 24 hours prior to further manipulation. On the day of the experiment, a baseline allodynia score was determined and then A-85380 or its vehicle control was given and measures taken at 15, 30 and 60 minutes post agonist injection. Dose response curves for i.p., i.d. and DRG administration were also determined using this time line. […]

persistent pain = test: formalin model of persistent pain (phase two); type: in vivo, rat; conditions: A-85380 0.75 μmol/kg i.p.
Experimental: The formalin test was used as an assessment of persistent pain. The method, described previously (Bannon et al. 1998) is briefly as follows. Following acclimation to the test environment, 50 μl of a 5% formalin solution was injected subcutaneously into the dorsal surface of one of the rear paws. Only phase two, defined as the 20 minute period from 30 to 50 minutes post formalin injection, was scored for nocifensive behaviors including flinching, licking, and biting.
For formalin experiments, chlorisondamine or its vehicle was infused either 24 h or 40-50 minutes prior to further manipulation. A-85380 was then injected and, 5 minutes later, formalin was injected into the paw. Measures were taken between 30 and 50 minutes post formalin injection.
The effect of centrally and systemically administered chlorisondamine in a model of persistent pain was examined. Using phase two of the formalin model of persistent pain, chlorisondamine (10 μg) was administered i.c.v. 24 hours prior to the systemic administration of A-85380.

acute thermal pain [4] = test: rat paw withdrawal model of acute thermal pain using neuropathic rats; type: in vivo; conditions: chlorisondamine 0.4 μmol/kg i.p., A-85380 0.75 μmol/kg i.p.
Description: (§1) For the assessment of acute pain, a paw thermal stimulator was used to evaluate nociceptive responses to an acute thermal stimulus (Anesthesiology Research Laboratory, Department of Anesthesiology, University of California at San Diego, La Jolla, Calif.). The device and behavioral procedure have been described previously (Hargreaves et al., A new and sensitive method for measuring thermal nociception in cutaneous hyperalgesia, Pain 1988, 32:77-88; Dirig et al., Characterization of variables defining hind paw withdrawal latency evoked by radiant thermal stimuli, J. Neurosci. Meth. 1997; 76:183-191). Briefly, rats were placed in Plexiglas boxes on a glass surface maintained at 30° C. and allowed to acclimate for 30 minutes. The measured nociceptive response was the latency to withdraw the hind paw when heated by light from a focused projector lamp (current set at 4.8 A). The final score was the mean of the latencies for the left and right paw. To avoid tissue damage, the maximal response latency prior to automatic shutoff of the lamp was 20.5 sec.
(§2) For acute thermal pain experiments, a baseline withdrawal threshold was determined, and then chlorisondamine or its vehicle was administered. […]
To address this concern, neuropathic rats were assessed in the acute thermal model of paw withdrawal. […]

acute thermal pain [5] = test: rat paw withdrawal model of acute thermal pain, normal rats; type: in vivo; conditions: chlorisondamine 0.4 μmol/kg i.p. 30 min prior, A-85380 0.75 μmol/kg i.p.
Description: as §1, with “To avoid tissue damage, the maximal response latency prior to automatic shutoff of the lamp was 20.5 sec.” left out
as §2
The effect of systemically administered chlorisondamine in a model of acute thermal pain was examined. […] The effect of systemically administered chlorisondamine (0.4 μmol/kg, i.p.) on A-85380 (0.75 μmol/kg, i.p.) was assessed.

[6] = chlorisondamine 10 μg i.c.v. 24 hours prior

## Cl.Cl.c1cncc(OC[C@@H]2CCN2)c1 [A-85380, 3-(2(S)-azetidinylmethoxy)pyridine dihydrochloride]
[1]
  crossing of the blood brain barrier: readily crosses the blood brain barrier
[2]; 0.5-1.0 μmol/kg, i.p.
  behaviors induced immediately following injection: prostration and ataxia
  time point by which prostration and ataxia abated: ≤ 15 min
[2]; chlorisondamine 0.4 μmol/kg i.p. pretreatment, A-85380 at increased dose
  side effects with peripheral NNRs blocked: significant increase in side effects
[2]; chlorisondamine 10 μg i.c.v. pretreatment, A-85380 at increased dose
  side effects with central NNRs blocked: almost no side effects
[2]; given systemically (i.p.), no antagonist
  side effects accompanying the reduction in allodynia: prostration, ataxia, bracing and dyspnea
[3]; 10 μg infused onto the L5 DRG
  anti-allodynia (paw withdrawal threshold): significant anti-allodynia
  duration of anti-allodynia: 15 min
[3]; 20 μg infused onto the L5 DRG
  anti-allodynia (paw withdrawal threshold): significant anti-allodynia
  duration of anti-allodynia: 30 min
[3]; 10, 20 and 50 μg/rat i.d. into plantar surface of contralateral (unaffected) paw, dihydrochloride
  anti-allodynia in the affected paw (paw withdrawal threshold): all three doses of A-85380 induced a significant anti-allodynia; also recorded: equivalent or greater anti-allodynia
[3]; 10, 20 and 50 μg/rat i.d. into plantar surface of ipsalateral (affected) paw, dihydrochloride
  anti-allodynia in the affected paw (paw withdrawal threshold): only the 50 μg dose of A-85380 had an anti-allodynic effect; also recorded: small but significant anti-allodynia
[3]; central NNRs blocked with chlorisondamine 10 μg i.c.v.
  dose required for significant reduction in allodynia: 3 µmol/kg
[3]; chlorisondamine 0.4 μmol/kg i.p. pretreatment, systemic A-85380
  reduction in allodynia with peripheral NNRs blocked: significant reduction in allodynia
[3]; chlorisondamine 10 μg i.c.v. pretreatment, systemic A-85380
  reduction in allodynia with central NNRs blocked: significant reduction in allodynia
[3]; doses converted to equivalent systemic dose, 15 minute time point
  potency to increase paw withdrawal threshold, i.p. compared with i.d. administration: similar
[3]; doses converted to equivalent systemic dose, 15 minute time point, dihydrochloride
  potency to increase paw withdrawal threshold, DRG administration compared with i.p. and i.d.: decidedly more potent; also recorded: most potent
[3]; given without an antagonist
  dose required for significant reduction in allodynia: 0.75 µmol/kg
[3]; infused directly onto the L5 DRG, different doses
  anti-allodynia (paw withdrawal threshold): dose-dependent anti-allodynic effect
[3]; peripheral NNRs blocked with chlorisondamine 0.4 μmol/kg i.p.
  dose required for significant reduction in allodynia: 1.5 µmol/kg
[3]; systemically administered (i.p.), no antagonist, dihydrochloride
  anti-allodynia (paw withdrawal threshold): significant, dose-dependent decrease; also recorded: dose dependent anti-allodynia; also recorded: dose-dependent anti-allodynia

## O=C(NO)c1cncc(N2C[C@H]3CNC[C@H]32)c1 [A-420503, (IR, 5S) 5-(3,6-diazabicyclo [3.2.0]hept-6-yl)-N-hydroxy-nicotinamide]
[2]; 62 μmol/kg, i.p.
  side effects: without any notable side effects
[3]; 62 μmol/kg, i.p.
  anti-allodynia: significant anti-allodynia
[3]; DRG administration
  effects at the DRG after pretreatment with an NMR antagonist: blocked
[3]; at the DRG, equivalent to 4.77 μmol/kg i.p.
  anti-allodynia: significant anti-allodynia

## C[N+](C)(C)CCCCCC[N+](C)(C)C [Hexamethonium, hexamethonium]
[3]; hexamethonium 19 μmol/kg i.p. 30 minutes prior
  effect of antagonist pretreatment on A-85380 induced anti-allodynia: blocked

## CNC1(C)C2CCC(C2)C1(C)C (stereo not drawn) [Mecamylamine, mecamylamine hydrochloride]
[2]; mecamylamine 1 μmol/kg i.p. 30 minutes prior to A-85380
  effect of antagonist pretreatment on prostration and ataxia following A-85380 injection: blocked
[3]; mecamylamine 1 μmol/kg i.p. 30 minutes prior, hydrochloride
  effect of antagonist pretreatment on A-85380 induced anti-allodynia: completely blocked
[3]; mecamylamine 1 μmol/kg i.p. 30 minutes prior, listed as mecamylamine, hydrochloride
  effect of antagonist pretreatment on A-85380 induced anti-allodynia: full blockade

## C[N+](C)(C)CC[N+]1(C)Cc2c(Cl)c(Cl)c(Cl)c(Cl)c2C1 [chlorisondamine, chlorisondamine diiodide]
Persistent pain; chlorisondamine 0.4 μmol/kg i.p. 40-50 minutes prior to formalin
  effect of antagonist pretreatment on A-85380 induced analgesia (flinches, phase two): no significant attenuation; also recorded: no significant effect
Persistent pain; [6]
  effect of antagonist pretreatment on A-85380 induced analgesia (flinches, phase two): completely blocked
[3]; chlorisondamine 0.4 μmol/kg i.p. 30 minutes prior
  effect of antagonist pretreatment on A-85380 induced anti-allodynia: completely blocked
[3]; chlorisondamine 0.4 μmol/kg i.p. 30 minutes prior, A-85380 20 μg onto DRG
  effect of antagonist pretreatment on anti-allodynia induced by A-85380 infused onto the DRG: completely blocked
[3]; [6]
  effect of antagonist pretreatment on A-85380 induced anti-allodynia: completely blocked
Acute thermal pain [4]
  effect of antagonist pretreatment on A-85380 induced antinociception (paw withdrawal latency): did not alter; also recorded: does not alter
Acute thermal pain [5]
  effect of antagonist pretreatment on A-85380 induced antinociception (paw withdrawal latency): no effect; also recorded: completely ineffective
